Reference: ChEMBL document CHEMBL6092180 (Eur J Med Chem, 2024)
Converted amounts (≈) assume the structure as drawn.

Columns and labels:
Type in all cases: functional
Cryptococcus neoformans = assay: Antifungal activity against Cryptococcus neoformans CGMCC 2.3161 assessed as inhibition of fungal growth by CLSI M27-A3 guidelines based method
Candida parapsilosis = assay: Antifungal activity against Candida parapsilosis GIM 2.190 assessed as inhibition of fungal growth by CLSI M27-A3 guidelines based method; conditions: Lodderomyces parapsilosis
Nakaseomyces glabratus = assay: Antifungal activity against Candida glabrata assessed as inhibition of fungal growth by CLSI M27-A3 guidelines based method
Pichia kudriavzevii = assay: Antifungal activity against Candida krusei GIM 2.1 assessed as inhibition of fungal growth by CLSI M27-A3 guidelines based method
Candida albicans [1] = assay: Antifungal activity against Candida albicans GIM 2.194 assessed as inhibition of fungal growth by CLSI M27-A3 guidelines based method
Candida albicans [2] = assay: Antifungal activity against Candida albicans SC5314 assessed as inhibition of fungal growth by CLSI M27-A3 guidelines based method
Candida tropicalis = assay: Antifungal activity against Candida tropicalis GIM 2.183 assessed as inhibition of fungal growth by CLSI M27-A3 guidelines based method

Row | Structure (SMILES) | MIC80 (Cryptococcus neoformans) [µg/mL] | MIC80 (Candida parapsilosis) [µg/mL] | MIC80 (Nakaseomyces glabratus) [µg/mL] | MIC80 (Pichia kudriavzevii) [µg/mL] | MIC80 (Candida albicans [1]) [µg/mL] | MIC80 (Candida albicans [2]) [µg/mL] | MIC80 (Candida tropicalis) [µg/mL]
1 | CN(Cc1ccc(C#Cc2ccc(Br)c(F)c2)cc1)CC(O)(Cn1cncn1)c1ccc(F)cc1F (stereo unspecified) | 0.025 (≈ 0.045 µM) | 0.006 (≈ 0.0108 µM) | 0.03 (≈ 0.054 µM) | 0.01 (≈ 0.018 µM) | 0.006 (≈ 0.0108 µM) | 0.006 (≈ 0.0108 µM) | 0.006 (≈ 0.0108 µM)
2 | CN(Cc1ccc(C#Cc2ccc(F)c(F)c2)cc1)CC(O)(Cn1cncn1)c1ccc(F)cc1F (stereo unspecified) | 0.013 (≈ 0.0263 µM) | 0.006 (≈ 0.0121 µM) | 0.03 (≈ 0.0607 µM) | 0.01 (≈ 0.0202 µM) | 0.006 (≈ 0.0121 µM) | 0.006 (≈ 0.0121 µM) | 0.006 (≈ 0.0121 µM)
3 | CN(Cc1ccc(C#Cc2ccc(Cl)cc2F)cc1)CC(O)(Cn1cncn1)c1ccc(F)cc1F (stereo unspecified) | 0.025 (≈ 0.0489 µM) | 0.006 (≈ 0.0117 µM) | 0.03 (≈ 0.0587 µM) | 0.01 (≈ 0.0196 µM) | 0.006 (≈ 0.0117 µM) | 0.006 (≈ 0.0117 µM) | 0.006 (≈ 0.0117 µM)
4 | CN(Cc1ccc(C#Cc2cc(F)c(Br)cc2F)cc1)CC(O)(Cn1cncn1)c1ccc(F)cc1F (stereo unspecified) | 0.025 (≈ 0.0436 µM) | 0.006 (≈ 0.0105 µM) | 0.03 (≈ 0.0523 µM) | 0.03 (≈ 0.0523 µM) | 0.006 (≈ 0.0105 µM) | 0.006 (≈ 0.0105 µM) | 0.006 (≈ 0.0105 µM)
5 | CC(=O)c1ccc(C#Cc2ccc(CN(C)CC(O)(Cn3cncn3)c3ccc(F)cc3F)cc2)cc1 (stereo unspecified) | 0.006 (≈ 0.012 µM) | 0.006 (≈ 0.012 µM) | 0.03 (≈ 0.0599 µM) | 0.03 (≈ 0.0599 µM) | 0.006 (≈ 0.012 µM) | 0.006 (≈ 0.012 µM) | 0.006 (≈ 0.012 µM)
6 | CN(Cc1ccc(C#Cc2ccccc2F)cc1)CC(O)(Cn1cncn1)c1ccc(F)cc1F (stereo unspecified) | 0.006 (≈ 0.0126 µM) | 0.006 (≈ 0.0126 µM) | 0.05 (≈ 0.105 µM) | 0.01 (≈ 0.021 µM) | 0.013 (≈ 0.0273 µM) | 0.006 (≈ 0.0126 µM) | 0.006 (≈ 0.0126 µM)
7 | CN(Cc1ccc(C#Cc2ccc(Cl)c(F)c2)cc1)CC(O)(Cn1cncn1)c1ccc(F)cc1F (stereo unspecified) | 0.013 (≈ 0.0254 µM) | 0.006 (≈ 0.0117 µM) | 0.01 (≈ 0.0196 µM) | 0.03 (≈ 0.0587 µM) | 0.006 (≈ 0.0117 µM) | 0.006 (≈ 0.0117 µM) | 0.006 (≈ 0.0117 µM)
8 | CCc1ccc(C#Cc2ccc(CN(C)CC(O)(Cn3cncn3)c3ccc(F)cc3F)cc2)cc1 (stereo unspecified) | 0.025 (≈ 0.0514 µM) | 0.013 (≈ 0.0267 µM) | 0.1 (≈ 0.206 µM) | 0.05 (≈ 0.103 µM) | 0.013 (≈ 0.0267 µM) | 0.013 (≈ 0.0267 µM) | 0.013 (≈ 0.0267 µM)
9 | CN(Cc1ccc(C#Cc2cccnc2)cc1)CC(O)(Cn1cncn1)c1ccc(F)cc1F (stereo unspecified) | 0.05 (≈ 0.109 µM) | 0.05 (≈ 0.109 µM) | 0.8 (≈ 1.74 µM) | 0.2 (≈ 0.435 µM) | 0.025 (≈ 0.0544 µM) | 0.013 (≈ 0.0283 µM) | 0.013 (≈ 0.0283 µM)
10 | CN(Cc1ccc(C#Cc2cccc(F)c2)cc1)CC(O)(Cn1cncn1)c1ccc(F)cc1F (stereo unspecified) | 0.006 (≈ 0.0126 µM) | 0.006 (≈ 0.0126 µM) | 0.05 (≈ 0.105 µM) | 0.01 (≈ 0.021 µM) | 0.013 (≈ 0.0273 µM) | 0.006 (≈ 0.0126 µM) | 0.006 (≈ 0.0126 µM)
11 | CN(Cc1ccc(C#Cc2ccc(C(F)(F)F)cc2)cc1)CC(O)(Cn1cncn1)c1ccc(F)cc1F (stereo unspecified) | 0.05 (≈ 0.095 µM) | 0.1 (≈ 0.19 µM) | 0.2 (≈ 0.38 µM) | 0.2 (≈ 0.38 µM) | 0.025 (≈ 0.0475 µM) | 0.1 (≈ 0.19 µM) | 0.05 (≈ 0.095 µM)
12 | CN(Cc1ccc(C#Cc2ccc(I)cc2)cc1)CC(O)(Cn1cncn1)c1ccc(F)cc1F (stereo unspecified) | 0.013 (≈ 0.0222 µM) | 0.006 (≈ 0.0103 µM) | 0.01 (≈ 0.0171 µM) | 0.03 (≈ 0.0513 µM) | 0.006 (≈ 0.0103 µM) | 0.006 (≈ 0.0103 µM) | 0.013 (≈ 0.0222 µM)
13 | CN(Cc1ccc(C#Cc2ccncc2)cc1)CC(O)(Cn1cncn1)c1ccc(F)cc1F (stereo unspecified) | 0.2 (≈ 0.435 µM) | 0.013 (≈ 0.0283 µM) | 0.4 (≈ 0.871 µM) | 0.2 (≈ 0.435 µM) | 0.006 (≈ 0.0131 µM) | 0.013 (≈ 0.0283 µM) | 0.013 (≈ 0.0283 µM)
14 | CN(Cc1ccc(C#Cc2ccc(Br)cc2F)cc1)CC(O)(Cn1cncn1)c1ccc(F)cc1F (stereo unspecified) | 0.025 (≈ 0.045 µM) | 0.006 (≈ 0.0108 µM) | 0.03 (≈ 0.054 µM) | 0.03 (≈ 0.054 µM) | 0.006 (≈ 0.0108 µM) | 0.006 (≈ 0.0108 µM) | 0.006 (≈ 0.0108 µM)
15 | CN(Cc1ccc(C#Cc2ccc(C(C)(C)C)cc2)cc1)CC(O)(Cn1cncn1)c1ccc(F)cc1F (stereo unspecified) | 0.05 (≈ 0.0972 µM) | 0.013 (≈ 0.0253 µM) | 0.8 (≈ 1.55 µM) | 0.4 (≈ 0.777 µM) | 0.025 (≈ 0.0486 µM) | 0.025 (≈ 0.0486 µM) | 0.025 (≈ 0.0486 µM)
16 | CN(Cc1ccc(C#Cc2ccc(N)cc2)cc1)CC(O)(Cn1cncn1)c1ccc(F)cc1F (stereo unspecified) | 0.4 (≈ 0.845 µM) | 0.05 (≈ 0.106 µM) | 3.2 (≈ 6.76 µM) | 0.8 (≈ 1.69 µM) | 0.05 (≈ 0.106 µM) | 0.2 (≈ 0.422 µM) | 0.2 (≈ 0.422 µM)
17 | CN(Cc1ccc(C#Cc2cccc(Br)c2)cc1)CC(O)(Cn1cncn1)c1ccc(F)cc1F (stereo unspecified) | 0.013 (≈ 0.0242 µM) | 0.006 (≈ 0.0112 µM) | 0.8 (≈ 1.49 µM) | 0.2 (≈ 0.372 µM) | 0.006 (≈ 0.0112 µM) | 0.025 (≈ 0.0465 µM) | 0.013 (≈ 0.0242 µM)
18 | CN(Cc1ccc(C#Cc2cc(F)c(Cl)cc2F)cc1)CC(O)(Cn1cncn1)c1ccc(F)cc1F (stereo unspecified) | 0.025 (≈ 0.0473 µM) | 0.006 (≈ 0.0113 µM) | 0.01 (≈ 0.0189 µM) | 0.01 (≈ 0.0189 µM) | 0.006 (≈ 0.0113 µM) | 0.006 (≈ 0.0113 µM) | 0.006 (≈ 0.0113 µM)
